Test results from ChEMBL document CHEMBL2396555, “Synthesis and acrosin inhibitory activities of 5-phenyl-1H-pyrazole-3-carboxylic acid amide derivatives” (Bioorg Med Chem Lett, 2013).

Molecular target: Acrosin (Homo sapiens, UniProt P10323)
Test: Inhibition of human sperm acrosin using BAPNA as substrate after 3 hrs by spectrophotometric analysis

Sequence of Acrosin (P10323 20-42 limits assumed): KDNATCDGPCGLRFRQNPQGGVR
Sequence of Acrosin (P10323 43-343 limits assumed): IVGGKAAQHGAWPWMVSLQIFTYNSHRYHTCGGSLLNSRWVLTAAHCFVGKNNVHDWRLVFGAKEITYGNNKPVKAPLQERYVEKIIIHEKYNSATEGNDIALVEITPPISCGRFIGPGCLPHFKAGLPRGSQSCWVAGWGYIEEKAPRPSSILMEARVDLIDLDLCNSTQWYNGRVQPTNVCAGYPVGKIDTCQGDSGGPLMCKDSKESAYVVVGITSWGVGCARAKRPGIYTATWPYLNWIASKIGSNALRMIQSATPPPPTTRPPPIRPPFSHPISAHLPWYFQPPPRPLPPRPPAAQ

Row | SMILES | IC50 [µM]
1 | O=Cc1cc(-c2ccc(Cl)cc2Cl)on1 | 390
2 | COc1ccc(-c2cc(C(=O)NCCOCCO)n[nH]2)cc1 | 6020
3 | O=C(NCCO)c1cc(-c2ccc([N+](=O)[O-])cc2)[nH]n1 | 2700
4 | O=C(NCCCO)c1cc(-c2ccc([N+](=O)[O-])cc2)[nH]n1 | 3070
5 | CC(C)(CO)NC(=O)c1cc(-c2ccc([N+](=O)[O-])cc2)[nH]n1 | 1875
6 | O=C(NCCOCCO)c1cc(-c2ccc([N+](=O)[O-])cc2)[nH]n1 | 2070
7 | O=C(NC(CO)(CO)CO)c1cc(-c2ccc([N+](=O)[O-])cc2)[nH]n1 | 5220
8 | O=C(NCCO)c1cc(-c2cccc([N+](=O)[O-])c2)[nH]n1 | 760
9 | O=C(NCCCO)c1cc(-c2cccc([N+](=O)[O-])c2)[nH]n1 | 780
10 | O=C(NCCOCCO)c1cc(-c2cccc([N+](=O)[O-])c2)[nH]n1 | 9100
11 | O=C(NC(CO)(CO)CO)c1cc(-c2cccc([N+](=O)[O-])c2)[nH]n1 | 760
12 | O=C(NCCO)c1cc(-c2ccc(Br)cc2)[nH]n1 | 530
13 | O=C(NCCCO)c1cc(-c2ccc(Br)cc2)[nH]n1 | 380
14 | O=C(NCCOCCO)c1cc(-c2ccc(Br)cc2)[nH]n1 | 10000

The remaining lines, values ahead:

Row | IC50 [µM] | SMILES
15 | 410 | COc1ccc(-c2cc(C(=O)N(C)CCO)n[nH]2)cc1
16 | 5600 | O=C(c1cc(-c2ccc([N+](=O)[O-])cc2)[nH]n1)N(CCO)CCO
17 | 2950 | CC(O)CNC(=O)c1cc(-c2ccc([N+](=O)[O-])cc2)[nH]n1 (stereo not drawn)
18 | 1210 | CC(O)CN(CC(C)O)C(=O)c1cc(-c2ccc([N+](=O)[O-])cc2)[nH]n1 (stereo not drawn)
19 | 2000 | CN(CCO)C(=O)c1cc(-c2ccc([N+](=O)[O-])cc2)[nH]n1
20 | 2400 | O=C(c1cc(-c2cccc([N+](=O)[O-])c2)[nH]n1)N(CCO)CCO
21 | 1830 | CC(O)CNC(=O)c1cc(-c2cccc([N+](=O)[O-])c2)[nH]n1 (stereo not drawn)
22 | 790 | CN(CCO)C(=O)c1cc(-c2cccc([N+](=O)[O-])c2)[nH]n1
23 | 1520 | O=C(c1cc(-c2ccc(Br)cc2)[nH]n1)N(CCO)CCO
24 | 330 | CC(O)CNC(=O)c1cc(-c2ccc(Br)cc2)[nH]n1 (stereo not drawn)
25 | 880 | CC(CO)NC(=O)c1cc(-c2ccc(Br)cc2)[nH]n1 (stereo not drawn)
26 | 2800 | O=C(NCCO)c1cc(-c2ccccc2)[nH]n1
27 | 1700 | O=C(c1cc(-c2ccccc2)[nH]n1)N(CCO)CCO
28 | 540 | O=C(NCCCO)c1cc(-c2ccccc2)[nH]n1
29 | 60 | CC(O)CNC(=O)c1cc(-c2ccccc2)[nH]n1 (stereo not drawn)
30 | 10 | CC(O)CN(CC(C)O)C(=O)c1cc(-c2ccccc2)[nH]n1 (stereo not drawn)
31 | 3000 | CC(CO)NC(=O)c1cc(-c2ccccc2)[nH]n1 (stereo not drawn)
32 | 940 | O=C(NC(CO)(CO)CO)c1cc(-c2ccccc2)[nH]n1
33 | 90 | COc1ccc(-c2cc(C(=O)NCCO)n[nH]2)cc1
